Experimental data as given in patent US10322111B2, “Chemokine receptor binding heterocyclic compounds with enhanced efficacy” (Genzyme Corporation, priority 2001, dated 2019).
Read-outs that look alike come from different tables or passages of the source.

Tested on: CFU-GM, BFU-E and CFU-GEMM progenitor cells
Conditions: 80 μg/kg s.c.

c1cc(CN2CCCNCCNCCCNCC2)ccc1CN1CCCNCCNCCCNCC1 [AMD3100, 1,1′-[1,4-phenylene-bis(methylene)]-bis-1,4,8,11-tetraazacyclotetradecane]
6%: Cycling Status of Progenitors, CFU-GEMM (P2, T = 1 h after injection)
13%: Cycling Status of Progenitors, BFU-E (P1, T = 3 h after injection)
11%: Cycling Status of Progenitors, BFU-E (P1, T = 9 h after injection)
0%: Cycling Status of Progenitors, BFU-E (P1, T = 1 h after injection) | Cycling Status of Progenitors, CFU-GEMM (P1, T = 1 h after injection) | Cycling Status of Progenitors, CFU-GM, AGAR Culture (P1, T = 1 h after injection) | Cycling Status of Progenitors, CFU-GM, AGAR Culture (P1, T = 3 h after injection) | Cycling Status of Progenitors, BFU-E (P1, T = 6 h after injection) | Cycling Status of Progenitors, CFU-GEMM (P1, T = 6 h after injection) | Cycling Status of Progenitors, CFU-GM (P1, T = 6 h after injection) | Cycling Status of Progenitors, CFU-GM, AGAR Culture (P1, T = 6 h after injection) | Cycling Status of Progenitors, CFU-GEMM (P1, T = 9 h after injection) | Cycling Status of Progenitors, BFU-E (P1, T = 24 h after injection) | Cycling Status of Progenitors, CFU-GEMM (P1, T = 24 h after injection) | Cycling Status of Progenitors, CFU-GM (P1, T = 24 h after injection) | Cycling Status of Progenitors, CFU-GM (P2, T = 1 h after injection) | Cycling Status of Progenitors, CFU-GM, AGAR Culture (P2, T = 1 h after injection) | Cycling Status of Progenitors, BFU-E (P2, T = 3 h after injection) | Cycling Status of Progenitors, CFU-GEMM (P2, T = 3 h after injection) | Cycling Status of Progenitors, BFU-E (P2, T = 6 h after injection) | Cycling Status of Progenitors, CFU-GEMM (P2, T = 6 h after injection) | Cycling Status of Progenitors, CFU-GM (P2, T = 6 h after injection) | Cycling Status of Progenitors, BFU-E (P2, T = 9 h after injection) | Cycling Status of Progenitors, CFU-GM (P2, T = 9 h after injection) | Cycling Status of Progenitors, CFU-GM, AGAR Culture (P2, T = 9 h after injection) | Cycling Status of Progenitors, CFU-GEMM (P2, T = 24 h after injection) | Cycling Status of Progenitors, CFU-GM, AGAR Culture (P2, T = 24 h after injection) | Cycling Status of Progenitors, BFU-E (P3, T = 1 h after injection) | Cycling Status of Progenitors, CFU-GEMM (P3, T = 1 h after injection) | Cycling Status of Progenitors, CFU-GM (P3, T = 1 h after injection) | Cycling Status of Progenitors, CFU-GM, AGAR Culture (P3, T = 1 h after injection) | Cycling Status of Progenitors, BFU-E (P3, T = 3 h after injection) | Cycling Status of Progenitors, CFU-GEMM (P3, T = 3 h after injection) | Cycling Status of Progenitors, CFU-GM, AGAR Culture (P3, T = 3 h after injection) | Cycling Status of Progenitors, BFU-E (P3, T = 6 h after injection) | Cycling Status of Progenitors, CFU-GEMM (P3, T = 6 h after injection) | Cycling Status of Progenitors, CFU-GM (P3, T = 6 h after injection) | Cycling Status of Progenitors, BFU-E (P3, T = 9 h after injection) | Cycling Status of Progenitors, CFU-GEMM (P3, T = 9 h after injection) | Cycling Status of Progenitors, CFU-GM (P3, T = 9 h after injection) | Cycling Status of Progenitors, CFU-GM, AGAR Culture (P3, T = 9 h after injection) | Cycling Status of Progenitors, BFU-E (P3, T = 24 h after injection) | Cycling Status of Progenitors, CFU-GEMM (P3, T = 24 h after injection) | Cycling Status of Progenitors, CFU-GM (P3, T = 24 h after injection) | Cycling Status of Progenitors, CFU-GM, AGAR Culture (P3, T = 24 h after injection) | Cycling Status of Progenitors, BFU-E (P4, T = 1 h after injection) | Cycling Status of Progenitors, CFU-GEMM (P4, T = 1 h after injection) | Cycling Status of Progenitors, CFU-GM (P4, T = 1 h after injection) | Cycling Status of Progenitors, CFU-GM, AGAR Culture (P4, T = 1 h after injection) | Cycling Status of Progenitors, CFU-GEMM (P4, T = 3 h after injection)
2%: Cycling Status of Progenitors, CFU-GM (P1, T = 9 h after injection) | Cycling Status of Progenitors, CFU-GM (P2, T = 3 h after injection) | Cycling Status of Progenitors, BFU-E (P2, T = 24 h after injection)
3%: Cycling Status of Progenitors, BFU-E (P2, T = 1 h after injection) | Cycling Status of Progenitors, CFU-GM, AGAR Culture (P2, T = 6 h after injection) | Cycling Status of Progenitors, CFU-GM (P2, T = 24 h after injection) | Cycling Status of Progenitors, CFU-GM, AGAR Culture (P3, T = 6 h after injection)
4%: Cycling Status of Progenitors, CFU-GEMM (P2, T = 9 h after injection)
1%: Cycling Status of Progenitors, CFU-GM (P1, T = 1 h after injection) | Cycling Status of Progenitors, CFU-GM (P1, T = 3 h after injection) | Cycling Status of Progenitors, CFU-GM, AGAR Culture (P2, T = 3 h after injection) | Cycling Status of Progenitors, CFU-GM (P3, T = 3 h after injection)
7%: Cycling Status of Progenitors, CFU-GEMM (P1, T = 3 h after injection)
9%: Cycling Status of Progenitors, BFU-E (P4, T = 3 h after injection)
